Measured values as given in a melting point compilation (Tetko et al.; mined from patent text by program, amines drawn as free bases though some values may be those of a salt).

Compound | melting point
Nc1c(Cl)cccc1CO | 56 to 68 °C
O=C(Nc1nc(C(Cl)(Cl)Cl)ns1)c1ccccc1F | 149 °C
CC(=O)Nc1ccc(C(=S)SCC(=O)O)cc1 | 224 to 226 °C
CCCCc1oc2ccccc2c1C(=O)NCc1ccc2c(-c3ccc(OC)cc3)c(OCC#N)ccc2c1 | 139 to 142 °C
Cc1cc(=O)n2cccc(OCc3ccccc3Br)c2n1 | 144 to 146 °C
COc1ccccc1N1CCN(CCCCN2CCN(c3cccc(Cl)c3)C2=O)CC1 | 87 to 89 °C
CN1C(=O)CSc2ccc(Cl)cc21 | 119 to 121 °C
CCNc1nc(SC)ncc1C=O | 58 to 61 °C
COc1cccc(-c2ccc3c(c2)C(=O)N(Cc2cccnc2)C3=O)c1 | 115 to 117 °C
COc1ccc(OCC(=O)c2ccccc2)c([N+](=O)[O-])c1 | 88 to 90 °C
O=C(Nc1ccc2c(c1)C(=O)NC2=O)C(=O)N1CCC(Cc2ccc(F)cc2)CC1 | 226 to 228 °C
COCCN1CCN(C)c2cc(Nc3ncc(Cl)c(N[C@@H]4CCCC[C@H]4NS(C)(=O)=O)n3)c(OC)cc2C1 | 89 °C
CC(=O)Nc1ccc(C=C2c3ccccc3CCc3ccccc32)cc1 | 135 °C
CC(C)Cc1[nH]nc2c(N)nc3ccccc3c12 | 248 to 249 °C
Cc1cnc2nc(S(=O)(=O)Cl)nn2c1 | 106 to 108 °C
Fc1ccc(-c2cn(C3CCCN4CCCCC34)nn2)cc1 (centres undefined) | 142 °C
CC(=O)N1CCC(CCC(=O)c2cc3c4c(c2)CCN4C(=O)CC3)CC1 | 157 to 159 °C
Nc1cc(-c2ccc(Cl)cc2)on1 | 141 to 143 °C
CCn1c(=O)n(-c2ccc(-n3ccn4c5ccccc5nc34)cc2)c2ncccc21 | 220 to 221 °C
CC(C)(C)OC(=O)Nc1ccc([N+](=O)[O-])cc1 | 112 to 114 °C
CCCCCC1Cc2cc(OCC(=O)O)c(Cl)c(Cl)c2C1=O (centres undefined) | 192 to 195 °C
O=c1c2ccc(Cl)cc2[nH]c2c(O)nn(Cc3cccc(-c4nnn[nH]4)c3)c(=O)c12 | > 275 °C
COC(=O)CCCc1cc2nc(Cl)ccc2n1S(=O)(=O)c1cccc(-c2ccnc(C)n2)c1 | 140 to 144 °C
O=C(OC(c1ccccc1)c1ccccc1)C1=C(Sc2ccccc2)CC2CC(=O)C12 (centres undefined) | 148 to 150 °C
CCCN1CCC(O)(c2cccc(F)c2F)C1 (single isomer, unassigned; (-)) | 95 to 98 °C

Compound | melting point
CNn1cc(C(=O)O)c(=O)c2cc(F)c(N3CCC(N)C3)c(F)c21 (centres undefined) | 210 to 211 °C
CCOC(=O)c1c(C)oc2cc(N(C(C)=O)S(C)(=O)=O)c(Oc3ccccc3)cc2c1=O | 166 to 168 °C
COc1ccccc1OCC1SCCN1C(=S)CC(=O)c1cc(OC)c(OC)c(OC)c1 (centres undefined) | 110 to 112 °C
CC1(C)CC(=C(c2ccc(O)cc2)c2ccc(OCCCC(=O)O)cc2)CC(C)(C)C1 | 203 to 204 °C
COC(=O)CN(C)C(=S)c1cccc2c(Br)cccc12 | 85 to 86 °C
O=C(NC(CO)CO)c1ccccc1-c1ccc(C(F)(F)F)cc1 | 141 to 143 °C
CCOC1C=CC(Cl)=CC1(C)S(N)(=O)=O (centres undefined) | 153 to 155 °C
CCCCN1CCC(CNC(=O)c2ccc(N)n3cc(C(C)C)nc23)CC1 | 138 °C
CCC(=O)c1ccc(=O)[nH]c1C=CN(C)C | 204 to 206 °C
CC1(C)COC(c2ccc(CC34CCCCN3C(=O)N(c3cc(Cl)cc(Cl)c3)C4=O)cc2)=N1 (centres undefined) | 87.2 °C
CCN1CCCC1CNC(=O)c1ccc(Nc2ncnc3cc(C(F)(F)F)ccc23)cc1 (centres undefined) | 150 to 152 °C
CCOC(=O)c1cc(-c2ccc(-c3ccco3)cc2)n(-c2ccc(S(C)(=O)=O)c(F)c2)n1 | 172 °C
Clc1ccc(-c2nc(COc3ccc(CCCn4ccnc4)cc3)co2)s1 | 77 to 78 °C
O=C(Nc1cccc2ncccc12)N1CCN2C(=O)OC(c3ccccc3)(c3ccccc3)C2C1 (centres undefined) | 234 to 236 °C
O=C(Nc1ccc(Oc2ccccc2F)nc1)N1CCc2ccccc2CC1 | 170 to 172 °C
Cn1cc(C(=O)O)c(=O)c2cc3cc(F)c(N4CCNC(c5cccc(F)c5)C4)cc3nc21 (racemic) | 254 °C
CCOC(=O)CC1c2cc(C(F)(F)F)ccc2C(=O)N1CC(F)(F)F (racemic) | 54.5 to 55.5 °C
COC(=O)c1ccc(C(=O)c2c(O)cccc2F)cc1 | 101 °C
Nc1nnc2c3c(c(N4CCCCC4)nn12)CCCC3 | 230 to 232 °C
CC1CCCCC1C(=O)Nc1ccc(-c2cnc(-c3ccc(NC(=O)c4ccccn4)cc3)[nH]2)cc1 (centres undefined) | 227 to 229 °C
CC(C)[C@H](NC(=O)OCc1ccccc1)C(=O)N[C@H](C=O)Cc1ccc(OCc2ccccc2)cc1 | 160 to 162 °C
Cc1cnc(C#Cc2ccccc2)s1 | 82 to 83 °C
O=c1n(CCCCN2CCN(c3ccccc3)CC2)nc2n1-c1ccccc1OC2 | 85 to 87 °C
O=Cc1ccc2c(c1)Sc1ccc(F)cc1C=C2 | 137 to 139 °C
CC(C)(C)OC(=O)Oc1ccc(C(C(=O)OC(c2ccccc2)c2ccccc2)N2CC(NC(=O)OCc3ccccc3)C2=O)cc1 (centres undefined) | 153 to 154 °C

Compound | melting point
CCOc1ccc(C=[N+]([O-])C2CCCCC2)cc1 | 124 °C
CCCCn1ncc(/C=C(\Cc2cc3c(cc2OC)OCO3)C(=O)O)c1-c1ccc(OC)cc1OCc1ccccc1C(=O)O | 213 to 214 °C
Cc1nn(-c2ccc(C(=N)N)cc2)c(=O)n1-c1ccc(CCC(=O)O)cc1 | 303 to 305 °C
COC1CCC2C3CCc4cc(O)c(C=O)cc4C3CCC12C (centres undefined) | 120 to 121 °C
CC(C)(C)CN(NC(=O)c1ccccc1)C(=O)c1ccccc1 | 237 to 239 °C
Cc1cc(=O)[nH]c(=O)n1Cc1ccccc1 | 228 to 230 °C
COC(=O)c1c(C(F)(F)F)noc1NS(=O)(=O)c1ccccc1 | 100 to 101 °C
CCCn1c(=O)c2c(nc(C=Cc3cc(OC)c(OC)c(OC)c3S(N)(=O)=O)n2C)n(CCC)c1=O | 243 to 245 °C
NS(=O)(=O)c1ccc(C2CCNCC2)cc1 | 229 to 230 °C
O=[N+]([O-])c1ccc(OC(F)(F)c2ccccc2)cc1 | 46 to 48 °C
CC(C)(c1ccc(O)cc1)c1ccc(-c2ccc(C(C)(C)c3ccc(O)cc3)cc2)cc1 | 195 to 196 °C
c1ccc(-c2nnc3ccc(N4CCOCC4)nn23)cc1 | 266 to 268 °C
C=C1CCN(CC)c2c(CSc3nc4ccccc4[nH]3)cccc21 | 148 to 149 °C
COc1cc(Nc2nc(-c3ccc(Cl)cc3)cc(C(F)(F)F)n2)ccc1-n1cnc(C)c1 | 202 to 204 °C
COC(=O)c1cccc2c1CN(c1c(F)cc3c(=O)c(C(=O)O)cn(-c4ccc(F)cc4)c3c1F)C2 | 283 to 287 °C
COC(=O)Nc1cc(C)c(Br)cc1I | 140 to 141 °C
Cc1nc2c3c(c(C(N)=O)cc2n1C)CCC(c1ccccc1)N3 (centres undefined) | 311 to 319 °C
CN(C)CCC1CCC2(CC1)Nc1cc(Cl)c(S(N)(=O)=O)cc1S(=O)(=O)N2 (centres undefined) | 238 to 239 °C
COc1ccc(C2N(C(C)=O)c3ccccc3-c3c([N+](=O)[O-])cnn32)cc1 (centres undefined) | 153 to 154 °C
CC(C)(COc1ccc(O)c(C(N)=O)c1)NCC(O)c1ccccc1 (centres undefined) | 121 to 123 °C
N#CN=C(Nc1cccnc1)NC1(c2ccccc2)CC=CC1 | 285 to 288 °C
Cc1cccc(-c2nc3ccccn3c2-c2ccnc(-c3ccc(C(=O)NC4CCOCC4)cc3)c2)n1 | 128 °C
Cc1ccc(F)c(-c2cncc(OC3SCC(O)C(O)C3O)c2)c1 (centres undefined) | 198 °C
COC(=O)Cc1n[nH]c(C)c1[N+](=O)[O-] | 132 to 133 °C
CCOC(=O)c1nc2c(=O)[nH]c3cc(C(F)(F)F)ccc3n2c1Cn1cnc(Cl)c1Cl | 240 °C

Compound | melting point
O=C(NC(=O)c1c(Cl)cccc1Cl)Nc1ccc(Br)cn1 | 228 to 230 °C
CCN(CC)c1ccc(C(=O)NCCNC(=O)c2ccc(N(CC)CC)cc2)cc1 | 166 to 167 °C
COc1ccc(C(=CF)C(N)C(=O)O)cc1O (centres undefined) | 214 °C
Cc1cccc(-c2n[nH]cc2-c2ccc(F)c(-c3cc(F)c(S(N)(=O)=O)cc3F)c2)n1 | 122 to 125 °C
OCC(CO)OCc1ccccc1 | 38 to 39 °C
CCCCCCCCCCCNC(=O)NCCCC | 70 °C
CCOC(=O)C(=Cc1c(C)cc(C)cc1C)C(=O)CCl | 85 °C
CN1CCN(Cc2cccc(-c3ccc(-c4cn([C@H]5CN6CCC5CC6)nn4)s3)c2)CC1 | 155 °C
O=C1NC(C(=O)NCCO[N+](=O)[O-])C(c2ccccc2)S1 (centres undefined) | 139 to 140 °C
CCOC(=O)Nn1cccc1C(=O)c1ccc(Cl)cc1Cl | 114 to 116 °C
CCOC(=O)c1c(N2CCNCC2)c2cccnc2n(Cc2ccccc2)c1=O | 120 °C
CCCCCN(CCC12CC3CC(CC(C3)C1)C2)C(=O)NC(C)CCc1ccncc1 (centres undefined) | 128 to 129 °C
CCc1cccc(CC(=O)O)c1OCCCc1cn(-c2ccc(Br)cn2)nc1C(CC)CC | 123 °C
CCC(=S)OC1(C(=O)COC(=O)C(C)C)CCC2C3CC(C)C4=CC(=O)C=CC4(C)C3C(O)CC21C (centres undefined) | 151 to 152 °C
NCC(O)c1ccc(C(F)(F)F)cc1 (centres undefined) | 138 to 140 °C
CN1CCC2(CC1)CN(c1ccccc1[N+](=O)[O-])c1cc(Cl)ccc12 | 130 to 131 °C
CCCc1cc(=O)n(-c2cc(OC(C)C)c(Cl)cc2F)c(=O)n1C | 115 to 117 °C
CNc1ccc2[nH]ccc2c1 | 113 to 114 °C
Cc1cc(N2CCC3(CC2)OCCO3)c2cc(C)c(-c3ccc(Cl)cc3Cl)n2n1 | 193 to 196 °C
COc1ccc(C=C2NC(=O)NC2=O)cc1OC | 153 to 158 °C
O=C(O)C(=O)c1ccc(OCCOc2ccc([N+](=O)[O-])cc2)cc1 | 129 to 130 °C
c1ccc(COc2ccc(Cn3cnc4c(-c5ccco5)ncnc43)cc2)cc1 | 145 to 146 °C
COc1ccc(C(=O)Cc2c(Cl)cncc2Cl)c2cc(C(=O)N3CCN(C)CC3)oc12 | 160 to 161 °C
CC(=C1SC(=O)NC1=O)c1cccc(OCCOc2c(-c3ccc(F)cc3C)n(C)c3ccccc3c2=O)c1 | 225 to 226 °C
